In paper PMC11243320, “Tailoring Fibroblast-Activation Protein Targeting for Theranostics: A Comparative Preclinical Evaluation of the ^68Ga- and ^177Lu-Labeled Monomeric and Dimeric Fibroblast-Activation Protein Inhibitors DOTA.SA.FAPi and DOTAGA.(SA.FAPi)2” (Molecules, 2024):

System: CAFs
Experiment: Externalization studies in CAFs
Type: cell-based, human
Settings: after 24 h at 37 °C
Description: For saturation studies, CAFs were incubated with increasing concentrations of the radiotracers (0.1–10 nM). For internalization studies, approximately 2.5 pmol of the radiotracers were added to CAFs followed by incubation for 15, 30, 60, 90, 120, 180 and 240 min for the ^68Ga-labeled or 30, 60, 120, 240 and 360 min for the ^177Lu-labeled radiotracers at 37 °C, 5% CO2. For the externalization studies, approximately 2.5 pmol of the ^177Lu-labeled radiotracers were added to CAFs followed by incubation for 2 h at 37 °C, 5% CO2. Afterward, the amount of the externalized activity from the CAFs was determined at 0, 10, 20, 30, 60, 120, 240, and 1440 min (Supplemental Data).
Saturation Binding Studies […]
At each time point, the internalization was stopped by putting the plates on ice, removing the me-dium, and washing the cells twice with ice-cold PBS. […] The radioactivity of the culture medium, the receptor bound, and the internal-ized fractions were measured in a γ-counter.
The externalization rate of [177Lu]Lu-DOTA.SA.FAPi and [177Lu]Lu-DOTAGA.(SA.FAPi)2 was studied af-ter CAFs were incubated for 2 h with 2.5 pmol/well of each 177Lu-lebeled radioligand. […] The radioactivity of the culture medium, the receptor bound , the internalized and the externalized fractions were measured in a γ -counter. […]

N#C[C@@H]1CC(F)(F)CN1C(=O)CNC(=O)c1ccnc2ccc(OCCCCNc3c(NCCNC(=O)CN4CCN(CC(=O)[O-])CCN(CC(=O)[O-])CCN(CC(=O)[O-])CC4)c(=O)c3=O)cc12.[177Lu+3] [[^177Lu]Lu-DOTA.SA.FAPi]
Total internalized activity released from the CAFs into the medium: more than 93% | Total internalized activity remaining in the CAFs: 7%
